In PMC10657444, “Design and evaluation of tadpole-like conformational antimicrobial peptides” (Communications Biology, 2023):
≈ marks a conversion by molar mass, not a printed value. Where “and” joins values, the source holds several entries; their conditions need not be identical. Identical values can stand only once. Like-named read-outs stand apart in the source and are kept apart here. Residues, ends and D or L forms follow the SMILES beside them.

Columns and labels:
[1] = test system: MRSA 3393; assay type: cell-based, Staphylococcus aureus; details: 3393
Excerpt: (§1) Bacteria were cultivated in Luria-Bertani (LB) broth.

[2] = test system: MRSA ATCC 43300; assay type: cell-based, Staphylococcus aureus; details: ATCC 43300
Excerpt: as §1

[3] = test system: MRSA USA 300; assay type: cell-based, Staphylococcus aureus
Excerpt: as §1

[4] = test system: MRSA USA 300; assay type: cell-based, Staphylococcus aureus; remark: listed apart in the source
Method: The stability of peptides in different media was assessed using the MIC assay described above. Here, the stability of HT2 and RI-HT2 in serum, salt, and different pH were analyzed using methods previously described with some modifications. For serum stability, a solution of 10% or 20% fetal bovine serum (FBS) was made by diluting fetal bovine serum with phosphate buffer saline (PBS). HT2 and RI-HT2 were added for a final concentration of 160 µg/mL of peptide in the FBS solution, and incubation 2 h. Suspension containing no peptide was considered the negative control. The MIC of HT2 and RI-HT2 against MRSA USA 300 and K. pneumoniae ATCC 700603 were measured. For the acid stability assays, the peptides were incubated with different pH values of PBS (pH = 5.5 or 6.4) at 37 °C. These peptide mixtures were then serially diluted in a 96-well plate for the evaluation of antimicrobial activity against bacterial strains. Similarly, for salt stability, the peptides were assessed for their antimicrobial activity against MRSA USA 300 and K. pneumoniae ATCC 700603 in the presence of 150 mM NaCl.

[5] = test system: K. pneumoniae ATCC 700603; assay: Time-kill assay; assay type: cell-based, Klebsiella pneumoniae
Method: Time-kill assays were done in tubes (in 1.5 mL of LB) and antibiotics at the 1 ×, 2 ×, 4 × and 8 × MIC. Tubes were inoculated (5 × 10^6 CFU/mL) with MRSA USA 300 and K. pneumoniae ATCC 700603 and incubated at 37 °C under shaking. Serial dilutions of the cultures were plated at each desired time point (0, 1, 3, 6, and 24 h), using a multichannel pipette as follows: in line 1 of a 96-well plate, 100 µL of bacterial suspension was added, while 90 µL of 0.9% sterile saline per well was added to the other lines. At selected time points, 100 µL of bacterial suspension was transferred from the time-kill assay plate to the first line. The wells were further diluted 1 in 10 (0.9% saline) for the appropriate number of dilutions and 10 μL of each dilution was spotted in duplicate onto MH agar plates, then incubated overnight at 37°C. The colonies in each spot were counted and used to calculate the number of viable CFU/mL remaining in the original culture by considering the dilution factors.

[6] = test system: MRSA USA 300; assay: Membrane permeability, SYTOX Green; assay type: cell-based, Staphylococcus aureus
Method: Fluorescent probe SYTOX^TM Green (Invitrogen/ Life Technologies, S7020) was used to analyze the effect of HT2 and RI-HT2 on membrane permeability of MRSA USA 300 and K. pneumoniae ATCC 700603 as described elsewhere. SYTOX^TM Green is a DNA binding dye that is fluorescent when bound to nucleic acids and only enters cells with compromised plasma membranes. MRSA USA 300 and K. pneumoniae ATCC 700603 were cultured in LB broth to mid log phase at 37 °C and washed with PBS and resuspended (OD595 ≈ 0.1) in the same buffer. SYTOX^TM Green was added into the cell suspension with a final concentration of 5 μM and being kept in dark for 20 min. 98 µL pre-treated cell suspension was transferred into wells of 96-well glass black plates. Then, 2 µL of compound or DMSO were added to initiate the reaction. The final concentrations of HT2 and RI-HT2 were 1 ×, 2 ×, 4 × and 8 × MIC. Fluorescence strength was measured with excitation/emission wavelength of 485/528 nm every 5 min for 60 min.

[7] = test system: MRSA USA 300; assay: Scanning electron microscopy; assay type: cell-based, Staphylococcus aureus; details: 2 × MIC, 60 min
Method: Mid-log phase bacteria (MRSA USA 300 and K. pneumoniae ATCC 700603) grown in LB broth were adjusted to a density of 5 × 10^6 CFU/mL. […] All samples were centrifuged at 8000 rpm for 5 min, washed and then resuspended in PBS. Bacterial cells were fixed with 2.5% glutaraldehyde, and then incubated at 37°C on a glass slide for 20 min. Samples were dehydrated by passing through gradient ethanol (10%, 30%, 50%, 70%, 90%, and 100%) for 5 min at each concentration. Slides were dried with an automatic critical point drying instrument (Leica EM CPD300), and a small amount of gold was sputtered onto the samples using a sputter coater system to avoid charging in the microscope. Finally, the bacteria were visualized under a field-emission scanning electron microscopy (FESEM) device (Sirion 200).

## CC[C@H](C)[C@H](NC(=O)[C@H](CCCNC(=N)N)NC(=O)[C@H](CCCNC(=N)N)NC(=O)[C@H](CC(C)C)NC(=O)[C@H](Cc1ccccc1)NC(=O)[C@@H](N)CCCNC(=N)N)C(=O)N[C@@H](Cc1ccccc1)C(=O)N[C@@H](Cc1ccccc1)C(=O)N[C@@H](Cc1ccccc1)C(=O)N[C@@H](Cc1ccccc1)C(N)=O [HT2] (H-RFLRRIFFFF-NH2)
[1]
  MIC Gram+ MRSA 3393: 1.57 µM (≈ 2.27 µg/mL)
[2]
  MIC Gram+ MRSA ATCC 43300: 1.57 µM (≈ 2.27 µg/mL)
[3]
  MIC Gram+ MRSA USA 300: 1.57 µM (≈ 2.27 µg/mL)
[4]; USA 300
  MIC against MRSA USA 300: 3.13 µM (≈ 4.53 µg/mL)
[4]; USA 300, pH 5.5
  MIC against MRSA USA 300: 3.13 µM (≈ 4.53 µg/mL)
[4]; USA 300, pH 6.4
  MIC against MRSA USA 300: 3.13 µM (≈ 4.53 µg/mL)
[5]; 2 × MIC, 0 h
  viable count, time-kill: 3000000 CFU/mL and 3500000 CFU/mL and 3400000 CFU/mL
[5]; 2 × MIC, 1 h
  viable count, time-kill: 275000 CFU/mL and 375000 CFU/mL and 310000 CFU/mL
[5]; 2 × MIC, 3 h
  viable count, time-kill: 33000 CFU/mL and 31000 CFU/mL
[5]; 2 × MIC, 6 h
  viable count, time-kill: 14000 CFU/mL and 18000 CFU/mL and 16000 CFU/mL
[5]; 2 × MIC, 24 h
  viable count, time-kill: 18000 CFU/mL and 24000 CFU/mL and 23000 CFU/mL
[5]; 4 × MIC, 0 h
  viable count, time-kill: 3000000 CFU/mL and 3500000 CFU/mL and 3400000 CFU/mL
[5]; 4 × MIC, 1 h
  viable count, time-kill: 70000 CFU/mL and 65000 CFU/mL and 66000 CFU/mL
[5]; 4 × MIC, 6 h
  viable count, time-kill: 8000 CFU/mL and 7400 CFU/mL and 9000 CFU/mL
[5]; 4 × MIC, 24 h
  viable count, time-kill: 16000 CFU/mL and 21000 CFU/mL and 19000 CFU/mL
[5]; 8 × MIC, 0 h
  viable count, time-kill: 3000000 CFU/mL and 3500000 CFU/mL and 3400000 CFU/mL
[5]; 8 × MIC, 1 h
  viable count, time-kill: 520000 CFU/mL and 540000 CFU/mL and 550000 CFU/mL
[5]; 8 × MIC, 3 h
  viable count, time-kill: 500 CFU/mL and 700 CFU/mL
[5]; 8 × MIC, 24 h
  viable count, time-kill: 100 CFU/mL and 200 CFU/mL
[5]; 8 × MIC, after 24 h
  killing outcome (in words): cannot completely be killed
[5]; MIC, 0 h
  viable count, time-kill: 3000000 CFU/mL and 3500000 CFU/mL and 3400000 CFU/mL
[5]; MIC, 1 h
  viable count, time-kill: 400000 CFU/mL and 330000 CFU/mL and 410000 CFU/mL
[5]; MIC, 6 h
  viable count, time-kill: 430000 CFU/mL and 570000 CFU/mL and 480000 CFU/mL
[5]; MIC, 24 h
  viable count, time-kill: 51000000 CFU/mL and 58000000 CFU/mL and 54000000 CFU/mL
[6]; 2 × MIC, time 25 min
  Fluorescence intensity: 31855 and 32475 and 30920
[6]; 2 × MIC, time 30 min
  Fluorescence intensity: 32738 and 33363 and 31902
[6]; 2 × MIC, time 35 min
  Fluorescence intensity: 33433 and 34141 and 32365
[6]; 2 × MIC, time 40 min
  Fluorescence intensity: 33952 and 34791 and 32993
[6]; 2 × MIC, time 45 min
  Fluorescence intensity: 34234 and 35153 and 33304
[6]; 2 × MIC, time 50 min
  Fluorescence intensity: 34616 and 35530 and 33726
[6]; 2 × MIC, time 55 min
  Fluorescence intensity: 35021 and 36015 and 33983
[6]; 2 × MIC, time 60 min
  Fluorescence intensity: 35210 and 36080 and 33852
[6]; 4 × MIC, time 25 min
  Fluorescence intensity: 58334 and 57993 and 60104
[6]; 4 × MIC, time 30 min
  Fluorescence intensity: 59686 and 59179 and 61418
[6]; 4 × MIC, time 35 min
  Fluorescence intensity: 60470 and 60307 and 62172
[6]; 4 × MIC, time 40 min
  Fluorescence intensity: 61373 and 61097 and 62778
[6]; 4 × MIC, time 45 min
  Fluorescence intensity: 61952 and 61758 and 63164
[6]; 4 × MIC, time 50 min
  Fluorescence intensity: 62152 and 62388 and 63395
[6]; 4 × MIC, time 55 min
  Fluorescence intensity: 62374 and 62948 and 63676
[6]; 4 × MIC, time 60 min
  Fluorescence intensity: 62761 and 62954 and 64070
[6]; 8 × MIC, time 0 min
  Fluorescence intensity: 1486
[6]; 8 × MIC, time 25 min
  Fluorescence intensity: 61022 and 63005 and 63531
[6]; 8 × MIC, time 30 min
  Fluorescence intensity: 61916 and 63588 and 64175
[6]; 8 × MIC, time 35 min
  Fluorescence intensity: 62425 and 64473 and 64696
[6]; 8 × MIC, time 40 min
  Fluorescence intensity: 62708 and 64561 and 64714
[6]; 8 × MIC, time 45 min
  Fluorescence intensity: 62984 and 64891 and 65072
[6]; 8 × MIC, time 50 min
  Fluorescence intensity: 63293 and 64293 and 63594
[6]; 8 × MIC, time 55 min
  Fluorescence intensity: 63589 and 64553 and 65531
[6]; 8 × MIC, time 60 min
  Fluorescence intensity: 63666 and 65987 and 65753
[6]; MIC, time 0 min
  Fluorescence intensity: 1304 and 1201 and 1387
[6]; MIC, time 25 min
  Fluorescence intensity: 17216 and 17215 and 16315
[6]; MIC, time 30 min
  Fluorescence intensity: 17367 and 17359 and 16618
[6]; MIC, time 35 min
  Fluorescence intensity: 17590 and 17525 and 16584
[6]; MIC, time 40 min
  Fluorescence intensity: 17600 and 17633 and 16680
[6]; MIC, time 45 min
  Fluorescence intensity: 17644 and 17567 and 16788
[6]; MIC, time 50 min
  Fluorescence intensity: 17792 and 17686 and 16728
[6]; MIC, time 55 min
  Fluorescence intensity: 17738 and 17641 and 16766
[6]; MIC, time 60 min
  Fluorescence intensity: 17754 and 17734 and 16661
[6]; different concentrations
  time to maximum SYTOX Green fluorescence intensity: ≤ 10 min
[7]
  cell surface morphology by SEM (in words): rough, shrunken, wrinkled and partially damaged
